Laboratory results published in the NIST ThermoML archive (doi:10.1021/acs.jced.5b00474).

Assay: xn = mol fraction of the nth substance listed
Settings: 101 kPa, Liquid; for speed of sound: Frequency=3 MHz, Sing-around technique in a fixed-path interferometer; for mass density: Vibrating tube method

O=C1CCCN1 [2-pyrrolidinone] + CC#N
Settings	mass density [kg/m3]	speed of sound [m/s]
298.15 K, x1 = 0.1025	827.196	1311.2
298.15 K, x1 = 0.1865	864.997	1337
298.15 K, x1 = 0.3069	913.434	1380.2
298.15 K, x1 = 0.3976	946.686	1414.4
298.15 K, x1 = 0.4974	979.551	1451.9
298.15 K, x1 = 0.605	1012.17	1492.9
298.15 K, x1 = 0.695	1036.85	1526.1
298.15 K, x1 = 0.7932	1061.58	1561.6
298.15 K, x1 = 0.8972	1085.63	1598.1
303.15 K, x1 = 0.1025	821.985	–
303.15 K, x1 = 0.1865	859.946	1317.8
303.15 K, x1 = 0.3069	908.581	1362.3
303.15 K, x1 = 0.3976	941.969	1396.8
303.15 K, x1 = 0.4974	974.979	1434.8
303.15 K, x1 = 0.605	1007.72	1476
303.15 K, x1 = 0.695	1032.51	1509.5
303.15 K, x1 = 0.7932	1057.33	1545.2
303.15 K, x1 = 0.8972	1081.46	1582.1
308.15 K, x1 = 0.1025	816.754	–
308.15 K, x1 = 0.1865	854.873	1298.8
308.15 K, x1 = 0.3069	903.718	1344.4
308.15 K, x1 = 0.3976	937.251	1379.3
308.15 K, x1 = 0.4974	970.394	1417.7
308.15 K, x1 = 0.695	1028.15	1492.4
308.15 K, x1 = 0.8972	1077.29	1565.9
308.16 K, x1 = 0.605	1003.27	1459.2
308.16 K, x1 = 0.7932	1053.07	1528.7
313.15 K, x1 = 0.1025	811.493	–
313.15 K, x1 = 0.1865	849.779	1280.1
313.15 K, x1 = 0.3069	898.84	1326.7
313.15 K, x1 = 0.605	998.811	1442.4
313.15 K, x1 = 0.7932	1048.82	1512.3
313.15 K, x1 = 0.8972	1073.12	1549.8
313.16 K, x1 = 0.3976	932.515	1361.9
313.16 K, x1 = 0.4974	965.8	1400.7
313.16 K, x1 = 0.695	1023.8	1475.5
318.15 K, x1 = 0.1025	806.204	–
318.15 K, x1 = 0.1865	844.673	1261.4
318.15 K, x1 = 0.3976	927.77	1344.6
318.15 K, x1 = 0.605	994.35	1425.7
318.15 K, x1 = 0.695	1019.44	1458.7
318.15 K, x1 = 0.7932	1044.56	1496.1
318.15 K, x1 = 0.8972	1068.96	1533.8
318.16 K, x1 = 0.3069	893.944	1308.8
318.16 K, x1 = 0.4974	961.2	1383.7
323.15 K, x1 = 0.8972	1064.8	1517.9
323.16 K, x1 = 0.1025	800.887	–
323.16 K, x1 = 0.1865	839.54	1242.8
323.16 K, x1 = 0.3069	889.032	1290.5
323.16 K, x1 = 0.3976	923.008	1327.3
323.16 K, x1 = 0.4974	956.587	1366.8
323.16 K, x1 = 0.605	989.88	1408.9
323.16 K, x1 = 0.695	1015.08	1441.8
323.16 K, x1 = 0.7932	1040.3	1479.9

O=C1CCCN1 [2-pyrrolidinone] + ClC(Cl)Cl
Settings	mass density [kg/m3]	speed of sound [m/s]
293.15 K, x1 = 0.1002	1457.64	1033.4
293.15 K, x1 = 0.199	1424.67	1074.6
293.15 K, x1 = 0.3019	1388.18	1124.8
293.15 K, x1 = 0.4027	1351	1179
293.15 K, x1 = 0.5022	1313.31	1238.7
293.15 K, x1 = 0.697	1235.75	1374.5
293.15 K, x1 = 0.7992	1194.43	1457.3
293.15 K, x1 = 0.9	1152.99	1548.8
293.15 K, x1 = 1	1111.44	1649.3
293.16 K, x1 = 0.6054	1272.91	1307.2
295.15 K, x1 = 0.199	1421.54	–
295.15 K, x1 = 0.3019	1385.33	–
295.15 K, x1 = 0.4027	1348.4	–
295.15 K, x1 = 0.5022	1310.93	–
295.15 K, x1 = 0.6054	1270.72	–
295.15 K, x1 = 0.697	1233.71	–
295.15 K, x1 = 0.7992	1192.54	–
295.15 K, x1 = 0.9	1151.23	–
298.15 K, x1 = 0.1002	1449.07	1017.4
298.15 K, x1 = 0.199	1416.87	1059.6
298.15 K, x1 = 0.3019	1381.1	1109.8
298.15 K, x1 = 0.4027	1344.53	1164.5
298.15 K, x1 = 0.5022	1307.38	1223.7
298.15 K, x1 = 0.6054	1267.47	1292.9
298.15 K, x1 = 0.697	1230.66	1358.9
298.15 K, x1 = 1	1107.35	1632.9
298.16 K, x1 = 0.7992	1189.72	1442.2
298.16 K, x1 = 0.9	1148.6	1533.3
301.15 K, x1 = 1	1104.88	–
303.15 K, x1 = 0.1002	1440.46	1001.5
303.15 K, x1 = 0.199	1409.07	1044
303.15 K, x1 = 0.3019	1374	1094.7
303.15 K, x1 = 0.4027	1338.05	1149.5
303.15 K, x1 = 0.5022	1301.43	1208.6
303.15 K, x1 = 0.697	1225.58	1343.1
303.15 K, x1 = 0.7992	1184.99	1426.5
303.15 K, x1 = 0.9	1144.21	1517.3
303.15 K, x1 = 1	1103.26	1616.7
303.16 K, x1 = 0.6054	1262	1278.2
308.15 K, x1 = 0.1002	1431.81	985.52
308.15 K, x1 = 0.199	1401.22	1028.3
308.15 K, x1 = 0.4027	1331.55	1134.4
308.15 K, x1 = 0.5022	1295.47	1193.5
308.15 K, x1 = 0.6054	1256.52	1263.1
308.15 K, x1 = 0.697	1220.48	1327.1
308.15 K, x1 = 0.7992	1180.28	1411
308.15 K, x1 = 0.9	1139.82	1501.5
308.15 K, x1 = 1	1099.17	1600.5
308.16 K, x1 = 0.3019	1366.88	1079.5
313.15 K, x1 = 1	1095.08	1584.5
318.16 K, x1 = 1	1091	1568.6
323.16 K, x1 = 1	1086.92	1552.8
